Laboratory results published in ChEMBL document CHEMBL1158311, “Fusaricide, a new cytotoxic N-hydroxypyridone from Fusarium sp” (J Nat Prod, 1996).
In brackets after ≈: the same amount, converted by molar mass.

Columns and labels:
[1] = system: Candida albicans; assay: Antifungal activity against Candida albicans; assay type: functional
[2] = Ratio of IC50 for R17 activity to IC50 for HIV1 Rev activity
[3] = system: M109; assay: Antitumor activity against mouse M109 cells; assay type: functional
[4] = Inhibition of HIV1 recombinant Rev protein expressed in Escherichia coli binding to HIV1 Rre RNA by liquid scintillation assay; design: species or system Human immunodeficiency virus 1
[5] = system: Penicillium chrysogenum; assay: Antifungal activity against Penicillium chrysogenum; assay type: functional
[6] = Inhibition of R17 coat protein binding to [33P]labeled R17 operator RNA

Compound: CC[C@@H]1Oc2ccn(O)c(=O)c2[C@H]2[C@H](C)C[C@H](C)C[C@]12C [FUSARICIDE]
- MIC [1]: 16 µg/mL (≈ 54.9 µM)
- Ratio IC50 [2]: < 2
- Activity [3]: 1 µg/mL
- IC50 [4]: 40 µg/mL
- MIC [5]: 8 µg/mL (≈ 27.5 µM)
- IC50 [6]: 75 µg/mL (≈ 257 µM)
